Laboratory results published in US10610520B2, “Heterocyclic compound” (Takeda Pharmaceutical Company Limited, priority 2016, dated 2020).

Each compound was assayed against T1, His-hMAGL (recombinant polyhistidine tagged human MAGL protein) (Homo sapiens, UniProt Q99685) (assay: Measurement of MAGL inhibitory activity (arachidonic acid production from 2-arachidonylglycerol, RapidFire-mass spectrometry)). Conditions: MAGL inhibitory rate, test compound 10 μM, 60 min preincubation, 2-arachidonylglycerol substrate.
T1 construct: made in house; host or cells: E. coli BL21(DE3)
T1 sequence (Q99685 1-303): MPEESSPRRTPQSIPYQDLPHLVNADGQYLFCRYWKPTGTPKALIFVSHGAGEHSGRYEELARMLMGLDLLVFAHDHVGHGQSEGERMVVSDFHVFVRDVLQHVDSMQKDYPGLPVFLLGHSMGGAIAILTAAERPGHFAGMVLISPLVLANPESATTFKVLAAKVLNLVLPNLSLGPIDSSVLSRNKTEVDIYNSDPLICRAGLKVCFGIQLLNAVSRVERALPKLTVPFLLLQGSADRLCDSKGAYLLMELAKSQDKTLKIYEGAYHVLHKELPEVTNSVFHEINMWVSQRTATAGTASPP
Type: biochemical
How it was run: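 Arachidonic acid formed was quantified by online solid-phase extraction and triple-quadrupole MS in negative SRM mode against a d8 internal standard. Reaction: recombinant His-hMAGL (7.5 ng/mL, pH 7.5 Tris buffer with Triton X-100 and BSA) plus 2-AG (5 μL of 150 μM stock) for 10 min at room temperature, quenched with 2% formic acid. Percent inhibition corrected for enzyme-free background.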

inhibition at 10 µM | Structure (SMILES)
99% | O=C1CCC2(CN(C(=O)c3sc4cc(-c5cccc(C(F)(F)F)c5)ccc4c3Cl)C2)N1 [Example 196, 2-((3-chloro-6-(3-(trifluoromethyl)phenyl)-1-benzothiophen-2-yl)carbonyl)-2,5-diazaspiro[3.4]octan-6-one]
90% | O=C1CCC2(CN(C(=O)c3sc4cc(-c5ccc(C(F)(F)F)cc5)ccc4c3Cl)C2)N1 [Example 197, 2-((3-chloro-6-(4-(trifluoromethyl)phenyl)-1-benzothiophen-2-yl)carbonyl)-2,5-diazaspiro[3.4]octan-6-one]
100% | O=C1CCC2(CN(C(=O)c3sc4cc(-c5ccccc5OC(F)(F)F)ccc4c3Cl)C2)N1 [Example 199, 2-((3-chloro-6-(2-(trifluoromethoxy)phenyl)-1-benzothiophen-2-yl)carbonyl)-2,5-diazaspiro[3.4]octan-6-one]
94% | O=C1CCC2(CN(C(=O)c3sc4cc(-c5ccc(OC(F)(F)F)cc5)ccc4c3Cl)C2)N1 [Example 200, 2-((3-chloro-6-(4-(trifluoromethoxy)phenyl)-1-benzothiophen-2-yl)carbonyl)-2,5-diazaspiro[3.4]octan-6-one]
98% | O=C1CCC2(CN(C(=O)c3sc4cc(-c5cccc(OC(F)(F)F)c5)ccc4c3Cl)C2)N1 [Example 201, 2-((3-chloro-6-(3-(trifluoromethoxy)phenyl)-1-benzothiophen-2-yl)carbonyl)-2,5-diazaspiro[3.4]octan-6-one]
100% | Cc1ccc(F)c(-c2ccc3c(Cl)c(C(=O)N4CC5(CCC(=O)N5)C4)sc3c2)c1 [Example 202, 2-((3-chloro-6-(2-fluoro-5-methylphenyl)-1-benzothiophen-2-yl)carbonyl)-2,5-diazaspiro[3.4]octan-6-one]
101% | Cc1cccc(F)c1-c1ccc2c(Cl)c(C(=O)N3CC4(CCC(=O)N4)C3)sc2c1 [Example 203, 2-((3-chloro-6-(2-fluoro-6-methylphenyl)-1-benzothiophen-2-yl)carbonyl)-2,5-diazaspiro[3.4]octan-6-one]
100% | Cc1c(F)cccc1-c1ccc2c(Cl)c(C(=O)N3CC4(CCC(=O)N4)C3)sc2c1 [Example 204, 2-((3-chloro-6-(3-fluoro-2-methylphenyl)-1-benzothiophen-2-yl)carbonyl)-2,5-diazaspiro[3.4]octan-6-one]
101% | Cc1ccc(F)cc1-c1ccc2c(Cl)c(C(=O)N3CC4(CCC(=O)N4)C3)sc2c1 [Example 205, 2-((3-chloro-6-(5-fluoro-2-methylphenyl)-1-benzothiophen-2-yl)carbonyl)-2,5-diazaspiro[3.4]octan-6-one]
96% | Cc1ccc(-c2ccc3c(Cl)c(C(=O)N4CC5(CCC(=O)N5)C4)sc3c2)cc1F [Example 206, 2-((3-chloro-6-(3-fluoro-4-methylphenyl)-1-benzothiophen-2-yl)carbonyl)-2,5-diazaspiro[3.4]octan-6-one]
99% | Cc1ccc(-c2ccc3c(Cl)c(C(=O)N4CC5(CCC(=O)N5)C4)sc3c2)c(F)c1 [Example 207, 2-((3-chloro-6-(2-fluoro-4-methylphenyl)-1-benzothiophen-2-yl)carbonyl)-2,5-diazaspiro[3.4]octan-6-one]
100% | Cc1cccc(-c2ccc3c(Cl)c(C(=O)N4CC5(CCC(=O)N5)C4)sc3c2)c1F [Example 208, 2-((3-chloro-6-(2-fluoro-3-methylphenyl)-1-benzothiophen-2-yl)carbonyl)-2,5-diazaspiro[3.4]octan-6-one]
99% | Cc1cc(F)ccc1-c1ccc2c(Cl)c(C(=O)N3CC4(CCC(=O)N4)C3)sc2c1 [Example 209, 2-((3-chloro-6-(4-fluoro-2-methylphenyl)-1-benzothiophen-2-yl)carbonyl)-2,5-diazaspiro[3.4]octan-6-one]
101% | Cc1cc(-c2ccc3c(Cl)c(C(=O)N4CC5(CCC(=O)N5)C4)sc3c2)ccc1F [Example 210, 2-((3-chloro-6-(4-fluoro-3-methylphenyl)-1-benzothiophen-2-yl)carbonyl)-2,5-diazaspiro[3.4]octan-6-one]
99% | Cc1cc(F)cc(-c2ccc3c(Cl)c(C(=O)N4CC5(CCC(=O)N5)C4)sc3c2)c1 [Example 211, 2-((3-chloro-6-(3-fluoro-5-methylphenyl)-1-benzothiophen-2-yl)carbonyl)-2,5-diazaspiro[3.4]octan-6-one]
100% | O=C1CCC2(CN(C(=O)c3sc4cc(-c5cc(F)ccc5F)ccc4c3Cl)C2)N1 [Example 212, 2-((3-chloro-6-(2,5-difluorophenyl)-1-benzothiophen-2-yl)carbonyl)-2,5-diazaspiro[3.4]octan-6-one]

inhibition at 10 µM | Structure (SMILES)
100% | O=C1CCC2(CN(C(=O)c3sc4cc(-c5c(F)cccc5F)ccc4c3Cl)C2)N1 [Example 213, 2-((3-chloro-6-(2,6-difluorophenyl)-1-benzothiophen-2-yl)carbonyl)-2,5-diazaspiro[3.4]octan-6-one]
99% | O=C1CCC2(CN(C(=O)c3sc4cc(-c5cc(F)cc(F)c5)ccc4c3Cl)C2)N1 [Example 214, 2-((3-chloro-6-(3,5-difluorophenyl)-1-benzothiophen-2-yl)carbonyl)-2,5-diazaspiro[3.4]octan-6-one]
99% | O=C1CCC2(CN(C(=O)c3sc4cc(-c5cccc(F)c5F)ccc4c3Cl)C2)N1 [Example 215, 2-((3-chloro-6-(2,3-difluorophenyl)-1-benzothiophen-2-yl)carbonyl)-2,5-diazaspiro[3.4]octan-6-one]
100% | O=C1CCC2(CN(C(=O)c3sc4cc(-c5ccc(F)c(F)c5)ccc4c3Cl)C2)N1 [Example 216, 2-((3-chloro-6-(3,4-difluorophenyl)-1-benzothiophen-2-yl)carbonyl)-2,5-diazaspiro[3.4]octan-6-one]
97% | O=C1CCC2(CN(C(=O)c3sc4cc(-c5ccc(C6CC6)cc5)ccc4c3Cl)C2)N1 [Example 217, 2-((3-chloro-6-(4-cyclopropylphenyl)-1-benzothiophen-2-yl)carbonyl)-2,5-diazaspiro[3.4]octan-6-one]
100% | O=C1CCC2(CN(C(=O)c3sc4cc(-c5cccc(C6CC6)c5)ccc4c3Cl)C2)N1 [Example 218, 2-((3-chloro-6-(3-cyclopropylphenyl)-1-benzothiophen-2-yl)carbonyl)-2,5-diazaspiro[3.4]octan-6-one]
94% | O=C1CCC2(CN(C(=O)c3sc4cc(-c5ccc(C(F)F)cc5)ccc4c3Cl)C2)N1 [Example 219, 2-((3-chloro-6-(4-(difluoromethyl)phenyl)-1-benzothiophen-2-yl)carbonyl)-2,5-diazaspiro[3.4]octan-6-one]
100% | O=C1CCC2(CN(C(=O)c3sc4cc(-c5cccc(F)c5Cl)ccc4c3Cl)C2)N1 [Example 220, 2-((3-chloro-6-(2-chloro-3-fluorophenyl)-1-benzothiophen-2-yl)carbonyl)-2,5-diazaspiro[3.4]octan-6-one]
100% | O=C1CCC2(CN(C(=O)c3sc4cc(-c5c(F)cccc5Cl)ccc4c3Cl)C2)N1 [Example 221, 2-((3-chloro-6-(2-chloro-6-fluorophenyl)-1-benzothiophen-2-yl)carbonyl)-2,5-diazaspiro[3.4]octan-6-one]
99% | O=C1CCC2(CN(C(=O)c3sc4cc(-c5cc(Cl)ccc5F)ccc4c3Cl)C2)N1 [Example 222, 2-((3-chloro-6-(5-chloro-2-fluorophenyl)-1-benzothiophen-2-yl)carbonyl)-2,5-diazaspiro[3.4]octan-6-one]
100% | O=C1CCC2(CN(C(=O)c3sc4cc(-c5cc(F)ccc5Cl)ccc4c3Cl)C2)N1 [Example 223, 2-((3-chloro-6-(2-chloro-5-fluorophenyl)-1-benzothiophen-2-yl)carbonyl)-2,5-diaspiro[3.4]octan-6-one]
100% | O=C1CCC2(CN(C(=O)c3sc4cc(-c5ccc(F)cc5Cl)ccc4c3Cl)C2)N1 [Example 224, 2-((3-chloro-6-(2-chloro-4-fluorophenyl)-1-benzothiophen-2-yl)carbonyl)-2,5-diazaspiro[3.4]octan-6-one]
99% | O=C1CCC2(CN(C(=O)c3sc4cc(-c5ccc(Cl)cc5F)ccc4c3Cl)C2)N1 [Example 225, 2-((3-chloro-6-(4-chloro-2-fluorophenyl)-1-benzothiophen-2-yl)carbonyl)-2,5-diazaspiro[3.4]octan-6-one]
99% | O=C1CCC2(CN(C(=O)c3sc4cc(-c5ccc(F)c(Cl)c5)ccc4c3Cl)C2)N1 [Example 226, 2-((3-chloro-6-(3-chloro-4-fluorophenyl)-1-benzothiophen-2-yl)carbonyl)-2,5-diazaspiro[3.4]octan-6-one]
99% | Cc1ccc(-c2ccc3c(Cl)c(C(=O)N4CC5(CCC(=O)N5)C4)sc3c2)cn1 [Example 227, 2-((3-chloro-6-(6-methylpyridin-3-yl)-1-benzothiophen-2-yl)carbonyl)-2,5-diazaspiro[3.4]octan-6-one]
87% | O=C1CCC2(CN(C(=O)c3sc4cc(-c5ccc(C(F)(F)F)nc5)ccc4c3Cl)C2)N1 [Example 228, 2-((3-chloro-6-(6-(trifluoromethyl)pyridin-3-yl)-1-benzothiophen-2-yl)carbonyl)-2,5-diazaspiro[3.4]octan-6-one]
